Data from patent publication US7820379B2, “Process for high throughput screening of CpG-based immuno-agonist/antagonist” (Coley Pharmaceutical GmbH, priority 2000, dated 2010).

The sequences below were run against T1, murine TLR9 (Mus musculus, UniProt Q9EQU3, L378S/Q579H/T325N/T573A/T867A) (assay: NF-κB-luciferase activation in 293 cells transfected with murine TLR9 (293-mTLR9-luc)). Settings: CpG-ODN 1668 compared with CpG-ODN 2006.
T1 construct: additional primers were designed for amplification of the complete mouse TLR9 cDNA; expressed in transfected cells
T1 sequence (Q9EQU3 26-1032 T325N/L378S/T573A/Q579H/T867A): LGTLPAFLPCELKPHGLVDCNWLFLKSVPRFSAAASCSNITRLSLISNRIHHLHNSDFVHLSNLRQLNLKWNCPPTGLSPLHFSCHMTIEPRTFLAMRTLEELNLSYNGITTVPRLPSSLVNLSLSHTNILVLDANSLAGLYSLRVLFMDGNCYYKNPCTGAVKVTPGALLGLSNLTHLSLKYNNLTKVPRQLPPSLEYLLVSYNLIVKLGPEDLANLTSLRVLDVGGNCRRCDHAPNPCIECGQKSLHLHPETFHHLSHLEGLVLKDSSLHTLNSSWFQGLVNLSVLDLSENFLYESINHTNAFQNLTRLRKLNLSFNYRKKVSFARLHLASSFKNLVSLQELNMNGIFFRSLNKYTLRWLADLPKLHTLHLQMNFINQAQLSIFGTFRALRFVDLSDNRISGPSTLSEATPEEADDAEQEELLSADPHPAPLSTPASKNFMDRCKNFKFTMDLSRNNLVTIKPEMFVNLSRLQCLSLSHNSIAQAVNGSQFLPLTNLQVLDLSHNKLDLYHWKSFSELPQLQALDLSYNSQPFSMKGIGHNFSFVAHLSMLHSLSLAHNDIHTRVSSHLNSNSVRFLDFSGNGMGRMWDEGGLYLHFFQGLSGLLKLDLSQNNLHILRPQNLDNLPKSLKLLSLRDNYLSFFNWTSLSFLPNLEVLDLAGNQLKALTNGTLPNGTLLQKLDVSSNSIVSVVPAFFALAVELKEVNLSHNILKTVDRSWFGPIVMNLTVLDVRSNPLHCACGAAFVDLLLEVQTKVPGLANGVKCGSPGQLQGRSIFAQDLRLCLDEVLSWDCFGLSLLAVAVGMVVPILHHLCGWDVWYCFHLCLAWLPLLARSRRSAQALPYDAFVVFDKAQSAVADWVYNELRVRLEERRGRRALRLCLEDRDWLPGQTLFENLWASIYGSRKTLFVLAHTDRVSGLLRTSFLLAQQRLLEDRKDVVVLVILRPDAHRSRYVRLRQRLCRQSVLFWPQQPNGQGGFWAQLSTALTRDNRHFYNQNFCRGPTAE
Type: cell-based
Description: Human fibroblast 293 cells were transiently transfected with mTLR9 and the NF-κB-luc construct (FIG. 2). Similar data was obtained for IL-8 production (not shown). Thus expression of TLR9 (human or mouse) in 293 cells results in a gain of function for CpG-DNA stimulation similar to hTLR4 reconstitution of LPS responses.
To generate stable clones expressing human TLR9, murine TLR9, or either TLR9 with the NF-κB-luc reporter plasmid, 293 cells were transfected in 10 cm plates (2×10^6 cells/plate) with 16 μg of DNA and selected with 0.7 mg/ml G418 (PAA Laboratories GmbH, Cölbe, Germany). The clones were also screened for IL-8 production or NF-κB-luciferase activity after stimulation with ODN. Four different types of clones were generated. • 293-hTLR9-luc: expressing human TLR9 and 6-fold NF-κB-luciferase reporter • 293-mTLR9-luc: expressing murine TLR9 and 6-fold NF-κB-luciferase reporter • 293-hTLR9: expressing human TLR9 • 293-mTLR9: expressing murine TLR9
Similar results were obtained utilizing IL-8 production with the stable clone 293-hTLR9. 293-mTLR9-luc were also stimulated with CpG-ODN (1668, 2 μM; […], SEQ ID NO:84), GpC-ODN (1668-GC, 2 μM; […], SEQ ID NO:85), Me-CpG-ODN (1668 methylated, 2 μM; TCCATGAZGTTCCTGATGCT, Z=5-methylcytidine, SEQ ID NO:207), LPS (100 ng/ml) or media, as measured by monitoring NF-κB activation (FIG. 5). Similar results were obtained utilizing IL-8 production with the stable clone 293-mTLR9. Results are representative of at least two independent experiments. […] These cells can be used for screening of optimal ligands for innate immune responses driven by TLR9 in multiple species.
Because stable TLR9 transfectants mirrored primary cell responsiveness to CpG-DNA (FIGS. 4 and 5), it was hypothesized that stable transfectants could potentially discern species-specific CpG-motifs through TLR9 receptors. Therefore 293-hTLR9-luc (expressing human TLR9 and 6-fold NF-κB-luc reporter), 293-mTLR9-luc (expressing murine TLR9 and 6-fold NF-κB-luc reporter), 293-hTLR9 (expressing human TLR9) and 293-mTLR9 (expressing murine TLR9) clones were tested for CpG-DNA motif responsiveness. […] Depicted are both NF-κB-driven luciferase and IL-8 production as readout. […] After lysis of the cells luciferase can be detected photometrically based on an enzymatic reaction by luciferase which creates photons. IL-8 production was monitored using enzyme-linked immunosorbent assay (ELISA). […] Results shown in FIG. 11 are representative of three independent experiments. Strikingly, CpG-motif sequence specificity was conferred in a species-specific manner by TLR9. Additionally, the half-maximal concentration for either 2006 or 1668 appears nearly the same as those determined on primary cells (compare FIG. 10 and FIG. 11).
Although 2006 and 1668 are discussed in terms of CpG-motif differences, they are very different in several aspects (see Table 5 for comparison). The lengths are different, 24 versus 20 nucleotides, and 2006 has four CG dinucleotides compared to one in 1668. Additional differences are the CG position relative to the 5′ and 3′ ends and also 5′ sequence differences. In order to determine if motif specificity is a quality of the motif and not the global sequence environment, for this experiment several sequences were produced holding these variables constant. As a starting point, the 1668 sequence was modified by converting the central C to T and the distal TG to CG, thereby creating a second CG in the resulting sequence 5000 (SEQ ID NO:130, Table 5). Then point nucleotide changes were made, progressing toward a 2006-like sequence, 5007 (SEQ ID NO:98). The ODN 5002 (SEQ ID NO:132) is most like 1668 with the exception that C's at positions 12 and 19 have been converted to T's. […]

In the case of “TCCATGACGTTCCTGATGCT (listed as DNA, chemistry not fully specified) [ODN 1668]”, the “murine TLR9 signaling response” value is reported as “significantly stronger”.

Same assay, conditions: ODN concentration of half-maximal activation; 293-mTLR9-luc cells, NF-κB-driven luciferase readout, 12 hours; read-out: 293-mTLR9 Kac

“TCCATGACGTTCCTGATGCT (listed as DNA, chemistry not fully specified) [ODN 1668]” and “TCCATGACGTTCTTGACGCT (listed as DNA, chemistry not fully specified) [ODN 5000]” are within 1.5-fold of each other in EC50: 70 nM for the first, 82 nM for the second.

First: TCCATGACGTTCTTGACGTT (listed as DNA, chemistry not fully specified) [ODN 5001]
Second: TCCATGAGCTTCCTGATGCT (listed as DNA, chemistry not fully specified) [ODN 1668-GC]
The EC50 of the first is lower: 55 nM for the first, > 10000 nM for the second. The first is the more potent here.

Going from “TCCATGTCGTTCTTGATGTT (listed as DNA, chemistry not fully specified) [ODN 5004]” to “TCCATGTCGTTTTTGATGTT (listed as DNA, chemistry not fully specified) [ODN 5005]”, the EC50 rises from 400 nM to 2000 nM (5-fold). The first is the more potent here.

Compared with “TCCATGTCGTTTTTGTCGTT (listed as DNA, chemistry not fully specified) [ODN 5007]”, “TCCATGTCGTTTTTGTTGTT (listed as DNA, chemistry not fully specified) [ODN 5006]” is 1.5-fold lower in EC50: 1000 nM for the first, 650 nM for the second. The second is the more potent here.

TCGTCGTTTTGTCGTTTTGTCGTT [ODN 2006] and “TGCTGCTTTTGTGCTTTTGTGCTT (listed as DNA, chemistry not fully specified) [ODN 2006-GC]” cannot be ordered by EC50: > 10000 nM for the first, > 10000 nM for the second.
